Laboratory results published in US20260053834A1, “COVALENT MODIFIERS OF AKT1 AND USES THEREOF” (Terremoto Biosciences, Inc., priority 2023, published 2026).
Where two headings read alike, the source gives them in different places.

Key:
AKT1 WT = target: T1, AKT1 WT (Homo sapiens, UniProt P31749); test: Live cell target engagement by NanoBRET competitive probe displacement, AKT1 WT; type: binding; conditions: transfected HEK293 cells, 2 h at 37° C., read-out: AKT1 WT IC50: GeoMean IC50
T1 construct: expressed in transfected cells; host or cells: HEK293
T1 sequence (P31749 whole entry): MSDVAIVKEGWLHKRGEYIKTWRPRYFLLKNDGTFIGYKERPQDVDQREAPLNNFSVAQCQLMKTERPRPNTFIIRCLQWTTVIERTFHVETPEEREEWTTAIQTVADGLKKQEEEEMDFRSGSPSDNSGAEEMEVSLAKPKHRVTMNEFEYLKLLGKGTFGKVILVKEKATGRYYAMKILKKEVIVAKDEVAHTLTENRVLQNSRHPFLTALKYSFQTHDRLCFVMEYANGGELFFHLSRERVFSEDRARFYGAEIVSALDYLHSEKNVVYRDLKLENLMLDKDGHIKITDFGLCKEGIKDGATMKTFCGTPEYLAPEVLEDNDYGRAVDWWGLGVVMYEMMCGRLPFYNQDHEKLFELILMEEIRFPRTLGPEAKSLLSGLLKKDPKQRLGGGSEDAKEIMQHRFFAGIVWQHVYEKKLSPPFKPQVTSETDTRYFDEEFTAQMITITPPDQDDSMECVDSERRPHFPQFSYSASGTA

AKT2 = target: T2, AKT2 (Homo sapiens, UniProt P31751); test: Live cell target engagement by NanoBRET competitive probe displacement, AKT2; type: binding; conditions: transfected HEK293 cells, 2 h at 37° C., read-out: AKT2 IC50: GeoMean IC50
T2 construct: expressed in transfected cells; host or cells: HEK293
T2 sequence (P31751 whole entry): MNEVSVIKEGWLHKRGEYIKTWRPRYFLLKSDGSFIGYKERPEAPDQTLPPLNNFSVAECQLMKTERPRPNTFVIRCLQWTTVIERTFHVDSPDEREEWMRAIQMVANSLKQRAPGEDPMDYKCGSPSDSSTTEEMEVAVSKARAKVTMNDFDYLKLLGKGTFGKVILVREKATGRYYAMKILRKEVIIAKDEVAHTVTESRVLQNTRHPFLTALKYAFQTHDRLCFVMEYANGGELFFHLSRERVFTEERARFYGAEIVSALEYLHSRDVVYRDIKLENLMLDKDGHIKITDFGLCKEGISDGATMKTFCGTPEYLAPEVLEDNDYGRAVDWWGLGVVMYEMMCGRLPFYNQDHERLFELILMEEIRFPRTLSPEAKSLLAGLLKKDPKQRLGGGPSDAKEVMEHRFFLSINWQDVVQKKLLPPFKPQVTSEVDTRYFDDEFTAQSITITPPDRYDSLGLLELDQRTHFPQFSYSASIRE

AKT1 E17K = target: T3, AKT1 E17K (Homo sapiens, UniProt P31749, E17K); test: Live cell target engagement by NanoBRET competitive probe displacement, AKT1 E17K; type: binding; conditions: transfected HEK293 cells, 2 h at 37° C., read-out: AKT1 E17K IC50: GeoMean IC50
T3 construct: expressed in transfected cells; host or cells: HEK293
T3 sequence (P31749 whole entry E17K): as the sequence (P31749 whole entry) above, with E17K counted along it

[1] = tested on: LAPC4 prostate cancer cells, which express the AKT1 E17K allele; test: Antiproliferative effects in LAPC4 cells (CellTiter Glo, 72 h); type: cell-based; conditions: read-out: LAPC4 proliferation IC50: GeoMean IC50
Method in brief: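 Cells grown in IMDM with 12% FBS, seeded at 1,000 cells/well and treated with compound dilutions in DMSO for 72 h. Intracellular ATP read by luminescence. IC50 from a log(inhibitor) vs. response Hill fit.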

IC50 (AKT1 WT) [nM]	IC50 (AKT2) [nM]	IC50 (AKT1 E17K) [nM]	IC50 ([1]; Homo sapiens, LAPC4, 72 h) [nM]	IC50 [1] [nM]	SMILES
< 10	100 to 2000	< 10	100 to 2000		Cc1cc(-n2ccc(F)n2)nc2c1nc(-c1cccnc1N)n2-c1ccc2c(c1)CC[C@@H]2NC(=O)c1cc(C=O)c(O)c(F)c1F [Example 199, N-[(1S)-5-[2-(2-aminopyridin-3-yl)-5-(3-fluoropyrazol-1-yl)-7-methylimidazo[4,5-b]pyridin-3-yl]-2,3-dihydro-1H-inden-1-yl]-2,3-difluoro-5-formyl-4-hydroxybenzamide]
10 to 100	100 to 2000	10 to 100		10 to 100	Nc1ncccc1-c1nc2ccc(-n3cccn3)nc2n1-c1ccc2c(c1)CC(F)[C@@H]2NC(=O)c1cc(C=O)c(O)cc1F (single isomer, unassigned) [Example 259, N-((1R,2S*)-5-(2-(2-aminopyridin-3-yl)-5-(1H-pyrazol-1-yl)-3H-imidazo[4,5-b]pyridin-3-yl)-2-fluoro-2,3-dihydro-1H-inden-1-yl)-2-fluoro-5-formyl-4-hydroxybenzamide]
100 to 2000	100 to 2000	100 to 2000	≥ 2000		Nc1ncccc1-c1nc2ccc(-n3cc4c(n3)CNC4)nc2n1-c1ccc2c(c1)CC[C@@H]2NC(=O)c1ccc(O)c(C=O)c1 [Example 160, N-[(1S)-5-[2-(2-aminopyridin-3-yl)-5-{4H,5H,6H-pyrrolo[3,4-c]pyrazol-2-yl}imidazo[4,5-b]pyridin-3-yl]-2,3-dihydro-1H-inden-1-yl]-3-formyl-4-hydroxybenzamide]
100 to 2000	100 to 2000	10 to 100	100 to 2000		Nc1ncccc1-c1nc2ccc(-n3cc(C=O)cn3)nc2n1-c1ccc2c(c1)CC[C@@H]2NC(=O)c1ccc(O)c(C=O)c1 [Example 84, N-[(1S)-5-[2-(2-aminopyridin-3-yl)-5-(4-formylpyrazol-1-yl)imidazo[4,5-b]pyridin-3-yl]-2,3-dihydro-1H-inden-1-yl]-3-formyl-4-hydroxybenzamide]
100 to 2000	100 to 2000	10 to 100	100 to 2000		Nc1ncccc1-c1nc2ccc(-n3cccn3)nc2n1-c1ccc2c(c1)CC[C@@H]2NC(=O)c1ccc(O)c(C=O)c1F [Example 255, (S)—N-(5-(2-(2-aminopyridin-3-yl)-5-(1H-pyrazol-1-yl)-3H-imidazo[4,5-b]pyridin-3-yl)-2,3-dihydro-1H-inden-1-yl)-2-fluoro-3-formyl-4-hydroxybenzamide]
100 to 2000	100 to 2000	10 to 100	100 to 2000		Nc1ncccc1-c1nc2ccc(-n3cc(F)cn3)nc2n1-c1ccc2c(c1)CC[C@@H]2NC(=O)c1ccc(O)c(C=O)c1 [Example 76, N-[(1S)-5-[2-(2-aminopyridin-3-yl)-5-(4-fluoropyrazol-1-yl)imidazo[4,5-b]pyridin-3-yl]-2,3-dihydro-1H-inden-1-yl]-3-formyl-4-hydroxybenzamide]
10 to 100	100 to 2000	< 10	10 to 100		COc1c(O)c(C=O)cc(C(=O)N[C@H]2CCc3cc(-n4c(-c5cccnc5N)nc5ccc(-n6cccn6)nc54)ccc32)c1F [Example 214, N-[(1S)-5-[2-(2-aminopyridin-3-yl)-5-(pyrazol-1-yl)imidazo[4,5-b]pyridin-3-yl]-2,3-dihydro-1H-inden-1-yl]-2-fluoro-5-formyl-4-hydroxy-3-methoxybenzamide]
10 to 100	100 to 2000	10 to 100	10 to 100		Nc1ncccc1-c1nc2ccc(-c3ccccc3)nc2n1-c1ccc2c(c1)CC[C@@H]2NC(=O)c1cc(F)c(O)c(C=O)c1 [Example 8, N-[(1S)-5-[2-(2-aminopyridin-3-yl)-5-phenylimidazo[4,5-b]pyridin-3-yl]-2,3-dihydro-1H-inden-1-yl]-3-fluoro-5-formyl-4-hydroxybenzamide]
10 to 100	100 to 2000	10 to 100	100 to 2000		Cc1cc(-n2ccc(F)n2)nc2c1nc(-c1cccnc1N)n2-c1ccc2c(c1)CC[C@@H]2NC(=O)c1ccc(O)c(C=O)c1 [Example 181, (S)—N-(5-(2-(2-aminopyridin-3-yl)-5-(3-fluoro-1H-pyrazol-1-yl)-7-methyl-3H-imidazo[4,5-b]pyridin-3-yl)-2,3-dihydro-1H-inden-1-yl)-3-formyl-4-hydroxybenzamide]
100 to 2000	≥ 2000	10 to 100	100 to 2000		Nc1ncccc1-c1nc2ccc(Cl)nc2n1-c1ccc2c(c1)CC[C@@H]2NC(=O)c1ccc(O)c(C=O)c1 [Example 136, N-[(1S)-5-[2-(2-aminopyridin-3-yl)-5-chloroimidazo[4,5-b]pyridin-3-yl]-2,3-dihydro-1H-inden-1-yl]-3-formyl-4-hydroxybenzamide]
10 to 100	100 to 2000	10 to 100	100 to 2000		COCc1cc(-n2cccn2)nc2c1nc(-c1cccnc1N)n2-c1ccc2c(c1)CC[C@@H]2NC(=O)c1ccc(O)c(C=O)c1 [Example 210, N-[(1S)-5-[2-(2-aminopyridin-3-yl)-7-(methoxymethyl)-5-(pyrazol-1-yl)imidazo[4,5-b]pyridin-3-yl]-2,3-dihydro-1H-inden-1-yl]-3-formyl-4-hydroxybenzamide]
10 to 100	100 to 2000	10 to 100	10 to 100		Nc1ncccc1-c1nc2ccc(-c3nccs3)nc2n1-c1ccc2c(c1)CC[C@@H]2NC(=O)c1cc(F)c(O)c(C=O)c1 [Example 130, N-[(1S)-5-[2-(2-aminopyridin-3-yl)-5-(1,3-thiazol-2-yl)imidazo[4,5-b]pyridin-3-yl]-2,3-dihydro-1H-inden-1-yl]-3-fluoro-5-formyl-4-hydroxybenzamide]
10 to 100	100 to 2000	10 to 100	10 to 100		Nc1ncccc1-c1nc2ccc(-n3nccn3)nc2n1-c1ccc2c(c1)CC[C@@H]2NC(=O)c1ccc(O)c(C=O)c1 [Example 91, N-[(1S)-5-[2-(2-aminopyridin-3-yl)-5-(1,2,3-triazol-2-yl)imidazo[4,5-b]pyridin-3-yl]-2,3-dihydro-1H-inden-1-yl]-3-formyl-4-hydroxybenzamide]
< 10	< 10	< 10	10 to 100		CN1CCN(c2cccc(-c3ccc4nc(-c5cccnc5N)n(-c5ccc6c(c5)CC[C@@H]6NC(=O)c5ccc(O)c(C=O)c5)c4n3)c2)CC1 [Example 19, (S)—N-(5-(2-(2-aminopyridin-3-yl)-5-(3-(4-methylpiperazin-1-yl)phenyl)-3H-imidazo[4,5-b]pyridin-3-yl)-2,3-dihydro-1H-inden-1-yl)-3-formyl-4-hydroxybenzamide]
10 to 100	100 to 2000	10 to 100	10 to 100		Cc1cc(-n2nccn2)nc2c1nc(-c1cccnc1N)n2-c1ccc2c(c1)CC[C@@H]2NC(=O)c1cc(C=O)c(O)c(F)c1F [Example 227, N-[(1S)-5-[2-(2-aminopyridin-3-yl)-7-methyl-5-(1,2,3-triazol-2-yl)imidazo[4,5-b]pyridin-3-yl]-2,3-dihydro-1H-inden-1-yl]-2,3-difluoro-5-formyl-4-hydroxybenzamide]
100 to 2000	≥ 2000	10 to 100	100 to 2000		C#Cc1ccc2nc(-c3cccnc3N)n(-c3ccc4c(c3)CC[C@@H]4NC(=O)c3ccc(O)c(C=O)c3)c2n1 [Example 50, N-[(1S)-5-[2-(2-aminopyridin-3-yl)-5-ethynylimidazo[4,5-b]pyridin-3-yl]-2,3-dihydro-1H-inden-1-yl]-3-formyl-4-hydroxybenzamide]
10 to 100	100 to 2000	10 to 100	100 to 2000		Nc1ncccc1-c1nc2ccc(-n3ccc(C(F)F)n3)nc2n1-c1ccc2c(c1)CC[C@@H]2NC(=O)c1ccc(O)c(C=O)c1 [Example 116, (S)—N-(5-(2-(2-aminopyridin-3-yl)-5-(3-(difluoromethyl)-1H-pyrazol-1-yl)-3H-imidazo[4,5-b]pyridin-3-yl)-2,3-dihydro-1H-inden-1-yl)-3-formyl-4-hydroxybenzamide]
10 to 100	100 to 2000	< 10	10 to 100		COCc1ccn(-c2ccc3nc(-c4cccnc4N)n(-c4ccc5c(c4)CC[C@@H]5NC(=O)c4ccc(O)c(C=O)c4)c3n2)n1 [Example 126, N-[(1S)-5-[2-(2-aminopyridin-3-yl)-5-[3-(methoxymethyl)pyrazol-1-yl]imidazo[4,5-b]pyridin-3-yl]-2,3-dihydro-1H-inden-1-yl]-3-formyl-4-hydroxybenzamide]
10 to 100	100 to 2000	10 to 100	100 to 2000		Nc1ncccc1-c1nc2ccc(-c3cccnn3)nc2n1-c1ccc2c(c1)CC[C@@H]2NC(=O)c1ccc(O)c(C=O)c1 [Example 18, N-[(1S)-5-[2-(2-aminopyridin-3-yl)-5-(pyridazin-3-yl)imidazo[4,5-b]pyridin-3-yl]-2,3-dihydro-1H-inden-1-yl]-3-formyl-4-hydroxybenzamide]
100 to 2000	100 to 2000	100 to 2000	100 to 2000		Nc1ncccc1-c1nc2ccc(-c3ccccc3)nc2n1-c1ccc2c(c1)CC[C@@H]2Nc1nccc2c(C=O)c(O)ccc12 [Example 39, 1-{[(1S)-5-[2-(2-aminopyridin-3-yl)-5-phenylimidazo[4,5-b]pyridin-3-yl]-2,3-dihydro-1H-inden-1-yl]amino}-6-hydroxyisoquinoline-5-carbaldehyde]
